Test results: patent US9637469B2, “Pyridine derivative” (Teijin Pharma Limited, priority 2012, dated 2017)

Target: T1, human URAT1 (Homo sapiens, UniProt Q96S37)
T1 construct: Full-length cDNA of human URAT1 (hURAT1)
T1 sequence (Q96S37 1-553): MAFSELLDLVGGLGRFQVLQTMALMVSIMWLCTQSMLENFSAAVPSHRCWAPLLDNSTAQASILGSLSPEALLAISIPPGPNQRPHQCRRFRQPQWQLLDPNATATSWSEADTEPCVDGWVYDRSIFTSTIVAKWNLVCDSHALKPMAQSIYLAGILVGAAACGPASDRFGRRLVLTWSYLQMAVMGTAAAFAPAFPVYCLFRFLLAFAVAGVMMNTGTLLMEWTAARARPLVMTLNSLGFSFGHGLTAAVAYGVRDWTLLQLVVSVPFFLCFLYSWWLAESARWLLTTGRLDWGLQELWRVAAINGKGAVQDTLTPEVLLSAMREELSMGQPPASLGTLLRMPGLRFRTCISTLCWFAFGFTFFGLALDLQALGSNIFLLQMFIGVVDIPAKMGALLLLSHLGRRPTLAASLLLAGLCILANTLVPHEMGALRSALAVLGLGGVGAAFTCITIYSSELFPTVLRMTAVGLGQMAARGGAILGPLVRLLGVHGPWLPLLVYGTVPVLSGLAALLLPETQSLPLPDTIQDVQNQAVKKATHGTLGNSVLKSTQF
Assay: Test for inhibition of uric acid transport using human URAT1-expressing cells;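 further: three stars up to 0.2 µM two stars 0.2-2 µM one star 2-20 µM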
Assay type: cell-based
Settings: HEK 293 cells expressing human URAT1, 14C-labeled uric acid 25 μM, uptake 37° C. for 5 min; for IC50: read-out: Inhibitory Activity (IC50 of uric acid transport inhibition)
Procedure: (1) Preparation of the Test Compound
The test compound was dissolved in DMSO (produced by Sigma) to a concentration of 20 mM and was subsequently used by diluting to desired concentrations.
(2) Test for Inhibition of Uric Acid Transport Using Human URAT1-Expressing Cells;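 further: three stars up to 0.2 µM two stars 0.2-2 µM one star 2-20 µM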
Full-length cDNA of human URAT1 (hURAT1) (produced by OriGene Technologies, Inc., NCBI Reference Sequence: NM 144585) was subcloned into an expression vector, pCMV6-Kan/Neo (produced by OriGene Technologies, Inc.), and hURAT1 gene was transfected into human embryonic kidney-derived cells (HEK 293 cells) by liposome method using Lipofectamine 2000 (produced by Invitrogen Corporation), whereupon HEK 293 cells expressing human URAT1 gene were screened by its Geneticin resistance. By a method similar to the following method, functional expression of human URAT1 gene was confirmed by using transport of ^14C-labeled uric acid into the cells as an index.
The HEK 293 cells expressing human URAT1 were seeded in a 24-well cell culture dish to a density of 3×10^5 cells/mL/well and were cultured in Dulbecco's modified Eagle's medium (D-MEM medium) containing 10% fetal bovine serum at 37° C. for 2 days. Thereafter, the following test for inhibition of uric acid transport was performed.
After the medium was removed by aspiration from each well, the medium was replaced with a solution obtained by substituting NaCl in Hank's Balanced Salt Solution (HBSS) with Na gluconate (hereinafter, HBSS/Na-gluconate) and the cells were preincubated at 37° C. for about 10 minutes. HBSS/Na-gluconate was removed by aspiration and a ^14C-uric acid solution that was warmed at 37° C. in advance containing various concentrations of the Example compound described in (1) and a radioactive ligand (^14C-labeled uric acid; final concentration 25 μM) was added and an uptake reaction was carried out by incubating at 37° C. for 5 min. After the incubation, ^14C-labeled uric acid solution was removed by aspiration and the cells were washed three times with ice-cold HBSS. The HEK 293 cells expressing human URAT1 were lysed in 0.2 mol/L aqueous NaOH (hereafter, the cell sample) and the cell samples were collected. The cell sample and a liquid scintillation liquid, ULTIMA GOLD (produced by PerkinElmer, Inc.) were mixed and the radioactivity was measured by a liquid scintillation counter (Beckman Coulter, Inc.).
The uric acid transport rate of the Example compound at each concentration (% of control uptake) was calculated relative to the radioactivity (radioactivity in human URAT1 expressing HEK 293 cells without addition of the Example compound (DMSO addition)) showing URAT1-specific uric acid transport as 100%, and the concentration (IC50) of the Example compound at which the uric acid transport rate is inhibited by 50% was determined. In addition, the symbols (*, **, and ***) in the table represent the following inhibitory activity values: • IC50≦_ 0.2 μM: *** • 0.2 μM<IC50≦2 μM: ** • 2 μM<IC50≦20 μM: *

| Structure (SMILES) | Inhibitory Activity (IC50 of uric acid transport inhibition) | IC50 [µM] |
| --- | --- | --- |
| Cc1nc(-c2cccnc2)n(Cc2cc(Cl)ccc2C(F)(F)F)c1C(=O)O [Compound A44, 1-(5-chloro-2-(trifluoromethyl)benzyl)-4-methyl-2-(pyridin-3-yl)-1H-imidazole-5-carboxylic acid] | * * | – |
| O=C(O)c1cnc(-c2cccnc2)n1Cc1cc(Cl)ccc1Cl [Compound A45, 1-(2,5-dichlorobenzyl)-2-(pyridin-3-yl)-1H-imidazole-5-carboxylic acid] | * * * | – |
| Cc1nc(-c2cccnc2)n(Cc2cc(C(F)(F)F)ccc2C(F)(F)F)c1C(=O)O [Compound A46, 1-(2,5-bis(trifluoromethyl)benzyl)-4-methyl-2-(pyridin-3-yl)-1H-imidazole-5-carboxylic acid] | * * | – |
| COc1ccc(-c2nc(C)c(C(=O)O)n2Cc2cccc3ccccc23)c(OC)n1 [Compound A47] | – | 2 to 20 |
| Cc1nc(-c2cccnc2)n(Cc2cccc(Cl)c2)c1C(=O)O [Compound A52] | – | 2 to 20 |
| Cc1nc(-c2cccnc2)n(Cc2ccc(Cl)cc2)c1C(=O)O [Compound A53] | – | 2 to 20 |
| Cc1nc(-c2cccnc2)n(Cc2ccccc2Br)c1C(=O)O [Compound A54, 1-(2-bromobenzyl)-4-methyl-2-(pyridin-3-yl)-1H-imidazole-5-carboxylic acid] | * * | – |
| Cc1nc(-c2cccnc2)n(Cc2cccc(Br)c2)c1C(=O)O [Compound A55, 1-(3-bromobenzyl)-4-methyl-2-(pyridin-3-yl)-1H-imidazole-5-carboxylic acid] | * * | – |
| Cc1nc(-c2cccnc2)n(Cc2ccc(Br)cc2)c1C(=O)O [Compound A56] | – | 2 to 20 |
| Cc1ccccc1Cn1c(-c2cccnc2)nc(C)c1C(=O)O [Compound A57] | – | 2 to 20 |
| Cc1cccc(Cn2c(-c3cccnc3)nc(C)c2C(=O)O)c1 [Compound A58] | – | 2 to 20 |
| CCc1ccccc1Cn1c(-c2cccnc2)nc(C)c1C(=O)O [Compound A59] | – | 2 to 20 |
| Cc1nc(-c2cccnc2)n(Cc2ccccc2C(F)(F)F)c1C(=O)O [Compound A60] | – | 2 to 20 |
| Cc1nc(-c2cccnc2)n(Cc2cccc(C(F)(F)F)c2)c1C(=O)O [Compound A61] | – | 2 to 20 |
| Cc1nc(-c2cccnc2)n(Cc2ccccc2OC(F)(F)F)c1C(=O)O [Compound A62] | – | 2 to 20 |
| Cc1nc(-c2cccnc2)n(Cc2cccc(OC(F)(F)F)c2)c1C(=O)O [Compound A63] | – | 2 to 20 |
| Cc1nc(-c2cccnc2)n(Cc2ccccc2C#N)c1C(=O)O [Compound A64] | – | 2 to 20 |
| Cc1nc(-c2cccnc2)n(Cc2cccc(C#N)c2)c1C(=O)O [Compound A65] | – | 2 to 20 |
| Cc1nc(-c2cnc3ccccc3c2)n(Cc2cccc3ccccc23)c1C(=O)O [Compound A66] | – | 2 to 20 |
| Cc1nc(-c2cnc3ccccc3c2)n(Cc2cc(Cl)ccc2Cl)c1C(=O)O [Compound A67, 1-(2,5-dichlorobenzyl)-4-methyl-2-(quinolin-3-yl)-1H-imidazole-5-carboxylic acid] | * * | – |
| Cc1nc(-c2cccnc2)n(Cc2cc(Cl)cc(Cl)c2)c1C(=O)O [Compound A71, 1-(3,5-dichlorobenzyl)-4-methyl-2-(pyridin-3-yl)-1H-imidazole-5-carboxylic acid] | * * * | – |
| Cc1nc(-c2cccnc2)n(Cc2cc(Cl)sc2Cl)c1C(=O)O [Compound A79, 1-((2,5-dichlorothiophen-3-yl)methyl)-4-methyl-2-(pyridin-3-yl)-1H-imidazole-5-carboxylic acid] | * * | – |
| Cc1nc(-c2cccnc2)n(Cc2sc(Cl)cc2Cl)c1C(=O)O [Compound A80, 1-((2,4-dichlorothiophen-5-yl)methyl)-4-methyl-2-(pyridin-3-yl)-1H-imidazole-5-carboxylic acid] | * * | – |
| O=C(O)c1c(C2CC2)nc(-c2cccnc2)n1Cc1cccc2ccsc12 [Compound A82, 1-(benzo[b]thiophen-7-ylmethyl)-4-cyclopropyl-2-(pyridin-3-yl)-1H-imidazole-5-carboxylic acid] | * * | – |

Further lines, results first:

| Inhibitory Activity (IC50 of uric acid transport inhibition) | IC50 [µM] | Structure (SMILES) |
| --- | --- | --- |
| * * | – | Cc1nc(-c2cccnc2)n(Cc2cc(F)ccc2Cl)c1C(=O)O [Compound A41, 1-(2-chloro-5-fluorobenzyl)-4-methyl-2-(pyridin-3-yl)-1H-imidazole-5-carboxylic acid] |
| * * | – | Cc1nc(-c2cccnc2)n(Cc2cc(Cl)ccc2F)c1C(=O)O [Compound A42, 1-(5-chloro-2-fluorobenzyl)-4-methyl-2-(pyridin-3-yl)-1H-imidazole-5-carboxylic acid] |
| * * * | – | Cc1nc(-c2cccnc2)n(Cc2cc(C(F)(F)F)ccc2Cl)c1C(=O)O [Compound A43, 1-(2-chloro-5-(trifluoromethyl)benzyl)-4-methyl-2-(pyridin-3-yl)-1H-imidazole-5-carboxylic acid] |
| – | 2 to 20 | Cc1nc(-c2cccnc2)n(Cc2ccccc2F)c1C(=O)O [Compound A48] |
| – | 2 to 20 | Cc1nc(-c2cccnc2)n(Cc2cccc(F)c2)c1C(=O)O [Compound A49] |
| – | 2 to 20 | Cc1nc(-c2cccnc2)n(Cc2ccc(F)cc2)c1C(=O)O [Compound A50] |
| – | 2 to 20 | Cc1nc(-c2cccnc2)n(Cc2ccccc2Cl)c1C(=O)O [Compound A51] |
| * * | – | Cc1nc(-c2cccnc2)n(Cc2ccc(Cl)c(Cl)c2)c1C(=O)O [Compound A68, 1-(3,4-dichlorobenzyl)-4-methyl-2-(pyridin-3-yl)-1H-imidazole-5-carboxylic acid] |
| * * | – | Cc1nc(-c2cccnc2)n(Cc2cccc(Cl)c2Cl)c1C(=O)O [Compound A70, 1-(2,3-dichlorobenzyl)-4-methyl-2-(pyridin-3-yl)-1H-imidazole-5-carboxylic acid] |
| – | 2 to 20 | Cc1nc(-c2cccnc2)n(Cc2c(F)cccc2Cl)c1C(=O)O [Compound A72] |
| – | 2 to 20 | Cc1nc(-c2cccnc2)n(Cc2ccc(F)cc2Cl)c1C(=O)O [Compound A73] |
| – | 2 to 20 | Cc1nc(-c2cccnc2)n(Cc2cccc(Cl)c2F)c1C(=O)O [Compound A74] |
| – | 2 to 20 | Cc1nc(-c2cccnc2)n(Cc2ccc(F)c(Cl)c2)c1C(=O)O [Compound A75] |
| * * | – | Cc1nc(-c2cccnc2)n(Cc2cc(F)cc(Cl)c2)c1C(=O)O [Compound A76, 1-(3-chloro-5-fluorobenzyl)-4-methyl-2-(pyridin-3-yl)-1H-imidazole-5-carboxylic acid] |
| * * | – | Cc1nc(-c2cccnc2)n(Cc2ccc(Cl)cc2Cl)c1C(=O)O [Compound A77, 1-(2,4-dichlorobenzyl)-4-methyl-2-(pyridin-3-yl)-1H-imidazole-5-carboxylic acid] |
| * * * | – | Cc1ccc(Cl)c(Cn2c(-c3cccnc3)nc(C)c2C(=O)O)c1 [Compound A78, 1-(2-chloro-5-methylbenzyl)-4-methyl-2-(pyridin-3-yl)-1H-imidazole-5-carboxylic acid] |
